Measurements published in US6022983A, “Pyronin antibacterials, process and novel intermediates thereto” (Scriptgen Pharmaceuticals, Inc., priority 1998, dated 2000).
Converted amounts (≈) assume the structure as drawn. Where two headings read alike, the source gives them in different places.

Tests used:
S. aureus = assay: Broth microdilution MIC, S. aureus; type: cell-based; conditions: for MIC: Staphylococcus aureus, Table II
Experimental: (§1) Different dilutions are performed for natural product extracts.

E. coli = assay: Broth microdilution MIC, E. coli; type: cell-based; conditions: Escherichia coli; Table II
Experimental: as §1

[1] = tested on: E. coli* (mutant strain that has permeabilized cell wall); assay: Broth microdilution MIC, E. coli* mutant with permeabilized cell wall; type: cell-based; conditions: Escherichia coli, read-out: MIC E. coli*
Experimental: as §1

S. aureus* = assay: Broth microdilution MIC, S. aureus* mutant strain; type: cell-based; conditions: Staphylococcus aureus, read-out: MIC S. aureus*
Experimental: as §1

E. coli RNA polymerase = E. coli RNA polymerase (Escherichia coli, UniProt P0A8T7+P0A8V2); assay: In vitro transcription assay, E. coli RNA polymerase; type: biochemical; conditions: for IC50: Table II, read-out: In vitro transcription (E.coli RNAP) IC50 (converted); for relative potency in in vitro transcription assay (FIG. 20a,b): comparison in words
Experimental: In vitro transcription reactions. [α^32 P] UTP-incorporated RNA was synthesized in 50 μl reaction volumes containing transcription buffer (50 mM Tris-HCl, pH 8.0, 200 mM KCl, 10 mM MgCl2, 10 mM DTT and 1.5 μM BSA), 1 μg of DNA template, 4 μM UTP containing 5 μCi of [α^32 P] UTP, 400 μM each of ATP, GTP, and CTP. After incubation for 60 minutes at 25° C., the reaction is terminated with 100 μl 10% TCA, which also precipitates the newly transcribed RNA.
Biological Evaluation of (±)-Myxopyronin A & B. The biological activities of the myxypyronins were evaluated with an in vitro transcription assay using E. coli RNA polymerase (FIG. 20a,b). […] As a validation of the in vitro transcription assay, a known transcription inhibitor, rifampicin, was included in the assay.

[2] = tested on: rifampicin susceptible strains; assay: microbe, parasite or virus in culture; conditions: Staphylococcus aureus
Experimental: (§2) Microdilution Minimal Inhibitory Concentration (MIC) and Minimum Bactericidal Concentration (MBC) Assays
(§3) The MIC is reported as a range between the concentration at which no growth is observed and the concentration of the dilution which immediately followed. Selected inhibitors from the RNA polymerase screen described above were tested for their ability to inhibit bacterial growth in a broth microdilution assay as follows. […] Dilution of antimicrobial agents is performed in a sterile, covered 96-well microliter plate with flat bottom wells (Costar #9017), and each well contains 100 μL of both +/- antimicrobial agent. The final concentrations of the small molecule antimicrobial agents are 100, 50, 25, 12.5, 6.25, 3.12, 1.56, 0.78, 0.39, 0.20, 0.10, and 0.05 μg/mL, respectively. Different dilutions are performed for natural product extracts. They are first diluted 100-fold with Mueller-Hinton broth. The final dilutions of the natural product extracts are 200, 400, 800, 1600, 3200, 6400, 12800, 25600, 51200, 1×105, 2×105, and 4×105 -fold. A 1 % DMSO (no-drug) row is prepared in Mueller-Hinton broth as a control for 100% growth on each plate. A Mueller-Hinton broth only with no bacteria growth is also included as a negative control for each plate. Ampicillin and rifampin are used as positive controls against all bacterial strains in every experiment.
(§4) The overnight culture of a single colony is diluted in sterile Mueller-Hinton broth so that, after inoculation, each well contains approximately 5×10^5 CFU/mL. Within 15 minutes of preparation, […] of the adjusted inoculum suspension is added to the microliter plate. Each well is diluted with an equal volume of the antimicrobial agent/control substance diluted with sterile Mueller-Hinton broth. The inoculated microliter plate is incubated at 35° C. for 16-20 hours. The turbidity of each well is determined by measuring the absorbance at 595 nm on the BioRad Model 3550-UV microplate reader. The rows containing broth only (no cells) serve as a control, and the rows containing the titration of 1% DMSO serve as a control for 100% growth. The average of the broth only controls is subtracted from the average of each duplicate. This value is subsequently normalized to the average of the DMSO controls.

[3] = tested on: rifampicin resistant strains; assay: microbe, parasite or virus in culture; conditions: Staphylococcus aureus
Experimental: as §2, §3, §4

Chain of E. coli RNA polymerase (P0A8V2 whole entry): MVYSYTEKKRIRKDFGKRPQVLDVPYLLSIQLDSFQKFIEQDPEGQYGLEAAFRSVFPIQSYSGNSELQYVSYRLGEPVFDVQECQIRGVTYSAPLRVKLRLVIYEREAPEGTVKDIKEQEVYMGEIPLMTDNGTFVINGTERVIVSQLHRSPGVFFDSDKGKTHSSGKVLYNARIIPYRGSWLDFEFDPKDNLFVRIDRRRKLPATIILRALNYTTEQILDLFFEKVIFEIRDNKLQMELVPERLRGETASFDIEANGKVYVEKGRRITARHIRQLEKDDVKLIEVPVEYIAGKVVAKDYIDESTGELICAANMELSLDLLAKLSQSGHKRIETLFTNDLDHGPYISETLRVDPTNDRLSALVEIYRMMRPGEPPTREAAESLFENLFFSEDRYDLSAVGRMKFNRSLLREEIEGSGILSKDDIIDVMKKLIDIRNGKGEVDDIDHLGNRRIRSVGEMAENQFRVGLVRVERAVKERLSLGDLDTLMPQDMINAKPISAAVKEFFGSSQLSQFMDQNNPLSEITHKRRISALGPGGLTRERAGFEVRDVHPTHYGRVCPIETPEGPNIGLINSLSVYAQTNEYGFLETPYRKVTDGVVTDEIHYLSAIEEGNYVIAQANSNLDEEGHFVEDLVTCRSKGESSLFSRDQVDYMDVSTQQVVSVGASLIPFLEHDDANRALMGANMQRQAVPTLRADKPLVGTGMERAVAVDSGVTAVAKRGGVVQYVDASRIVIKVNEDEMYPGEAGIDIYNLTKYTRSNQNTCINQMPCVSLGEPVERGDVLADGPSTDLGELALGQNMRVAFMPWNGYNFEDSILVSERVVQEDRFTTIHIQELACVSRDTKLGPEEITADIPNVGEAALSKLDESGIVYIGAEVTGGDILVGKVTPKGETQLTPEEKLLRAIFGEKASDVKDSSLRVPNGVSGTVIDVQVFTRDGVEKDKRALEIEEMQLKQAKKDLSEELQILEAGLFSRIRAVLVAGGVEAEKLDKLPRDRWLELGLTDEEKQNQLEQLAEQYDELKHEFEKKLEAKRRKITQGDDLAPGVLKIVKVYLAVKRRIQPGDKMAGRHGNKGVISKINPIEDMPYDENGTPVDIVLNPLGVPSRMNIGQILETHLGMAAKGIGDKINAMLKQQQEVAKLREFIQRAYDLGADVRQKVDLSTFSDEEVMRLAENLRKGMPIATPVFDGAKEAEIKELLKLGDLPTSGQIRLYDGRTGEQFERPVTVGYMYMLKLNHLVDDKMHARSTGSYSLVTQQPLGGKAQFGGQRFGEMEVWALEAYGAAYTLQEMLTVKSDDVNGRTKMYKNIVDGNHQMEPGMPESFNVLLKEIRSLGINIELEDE
Chain of E. coli RNA polymerase (P0A8T7 whole entry): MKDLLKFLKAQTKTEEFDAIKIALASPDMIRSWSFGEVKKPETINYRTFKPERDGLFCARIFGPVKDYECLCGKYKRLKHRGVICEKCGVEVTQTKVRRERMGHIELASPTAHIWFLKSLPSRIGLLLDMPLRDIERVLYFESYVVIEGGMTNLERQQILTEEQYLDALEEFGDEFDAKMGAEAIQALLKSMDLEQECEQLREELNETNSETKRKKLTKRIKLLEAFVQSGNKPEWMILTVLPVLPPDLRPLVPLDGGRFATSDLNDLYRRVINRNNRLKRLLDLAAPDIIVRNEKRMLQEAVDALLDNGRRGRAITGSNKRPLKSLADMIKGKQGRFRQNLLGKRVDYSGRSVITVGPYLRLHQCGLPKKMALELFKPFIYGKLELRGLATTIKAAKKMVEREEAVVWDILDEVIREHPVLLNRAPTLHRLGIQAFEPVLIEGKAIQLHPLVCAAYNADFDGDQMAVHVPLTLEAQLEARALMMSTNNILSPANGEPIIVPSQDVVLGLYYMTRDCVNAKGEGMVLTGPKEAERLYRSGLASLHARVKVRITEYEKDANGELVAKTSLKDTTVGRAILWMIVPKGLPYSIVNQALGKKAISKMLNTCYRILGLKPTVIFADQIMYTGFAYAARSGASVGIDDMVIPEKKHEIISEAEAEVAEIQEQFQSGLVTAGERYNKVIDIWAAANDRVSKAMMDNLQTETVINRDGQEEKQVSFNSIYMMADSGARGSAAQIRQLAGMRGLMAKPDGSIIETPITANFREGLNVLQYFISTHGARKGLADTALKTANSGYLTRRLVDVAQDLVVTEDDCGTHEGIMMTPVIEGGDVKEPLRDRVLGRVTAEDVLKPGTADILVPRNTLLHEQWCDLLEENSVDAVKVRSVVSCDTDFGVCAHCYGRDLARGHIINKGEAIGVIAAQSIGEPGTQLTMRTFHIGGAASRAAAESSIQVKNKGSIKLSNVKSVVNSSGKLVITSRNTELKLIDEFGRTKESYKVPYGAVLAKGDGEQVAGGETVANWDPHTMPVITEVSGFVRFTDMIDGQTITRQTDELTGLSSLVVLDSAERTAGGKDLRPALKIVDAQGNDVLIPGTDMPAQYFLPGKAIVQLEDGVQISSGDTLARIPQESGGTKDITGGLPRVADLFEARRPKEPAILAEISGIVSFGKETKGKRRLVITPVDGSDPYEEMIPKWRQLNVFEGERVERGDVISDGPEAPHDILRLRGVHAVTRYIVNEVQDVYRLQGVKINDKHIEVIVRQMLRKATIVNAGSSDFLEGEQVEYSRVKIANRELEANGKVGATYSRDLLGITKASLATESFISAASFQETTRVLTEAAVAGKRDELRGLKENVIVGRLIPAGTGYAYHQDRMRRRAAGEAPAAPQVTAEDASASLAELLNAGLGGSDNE
Chain of E. coli RNA polymerase (P0A7Z4 whole entry partner): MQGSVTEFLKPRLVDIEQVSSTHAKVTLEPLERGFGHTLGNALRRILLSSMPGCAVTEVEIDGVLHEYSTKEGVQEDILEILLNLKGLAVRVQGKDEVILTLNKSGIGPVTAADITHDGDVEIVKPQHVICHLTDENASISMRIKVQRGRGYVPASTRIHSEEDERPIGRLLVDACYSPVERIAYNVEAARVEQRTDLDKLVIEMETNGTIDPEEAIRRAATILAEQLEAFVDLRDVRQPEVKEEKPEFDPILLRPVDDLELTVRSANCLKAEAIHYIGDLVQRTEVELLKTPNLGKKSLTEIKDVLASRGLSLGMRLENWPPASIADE
Chain of E. coli RNA polymerase (P0A800 whole entry partner): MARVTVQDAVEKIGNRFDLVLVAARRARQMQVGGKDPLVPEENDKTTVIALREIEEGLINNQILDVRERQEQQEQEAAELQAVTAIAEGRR

CCC/C(C)=C/C=C(\C)C(=O)c1c(O)cc(C(C)CC/C=C/NC(=O)OC)oc1=O (racemic) [(±)-Myxo A, (±)-Myxopyronin A]
MIC (S. aureus): 15 µg/mL (≈ 35.9 µM)
MIC (E. coli): > 30 µg/mL
MIC [1]: 4 to 8 µg/mL (≈ 9.58 to 19.2 µM)
MIC (S. aureus*): 8 µg/mL (≈ 19.2 µM)
IC50 (E. coli RNA polymerase): 47.9 µM
relative potency in in vitro transcription assay (FIG. 20a,b) (E. coli RNA polymerase): equally potent as the natural product mixtures

CCCC/C(C)=C/C=C(\C)C(=O)c1c(O)cc(C(C)CC/C=C/NC(=O)OC)oc1=O (racemic) [(±)-Myxo B, (±)-Myxopyronin B]
fold more potent cell-based activities than myxopyronin A (S. aureus; MIC values of Table II, B versus A): up to 30 fold
MIC (S. aureus): 0.5 µg/mL (≈ 1.16 µM)
MIC (E. coli): > 30 µg/mL
MIC [1]: 2 µg/mL (≈ 4.63 µM)
MIC (S. aureus*): 0.5 µg/mL (≈ 1.16 µM)
IC50 (E. coli RNA polymerase): 11.6 µM
relative potency in in vitro transcription assay (FIG. 20a,b) (E. coli RNA polymerase): more potent molecule than A

CO[C@H]1/C=C/O[C@@]2(C)Oc3c(C)c(O)c4c(O)c(c(/C=N/N5CCN(C)CC5)c(O)c4c3C2=O)NC(=O)/C(C)=C\C=C\[C@H](C)[C@H](O)[C@@H](C)[C@@H](O)[C@@H](C)[C@H](OC(C)=O)[C@@H]1C [rifampicin]
MIC ([2]; read-out: MIC against susceptible strains, Example 9 statement b281): 10 µM (≈ 8.23 µg/mL)
MIC ([2]; read-out: MIC against susceptible strains, background statement b31): ~0.01 µM (≈ 0.00823 µg/mL)
MIC ([3]; read-out: MIC against resistant strains): > 10 µM
MIC ([3]; read-out: MIC against rifampicin resistant strains): > 100 µM
